Patent publication US4160829A, “Antibacterial 1,2,4-oxadiazolylacetamido cephalosporins” (Gist-Brocades N.V., priority 1972, dated 1979)
Converted amounts (≈) assume the structure as drawn. Read-outs that look alike come from different tables or passages of the source.

Legend:
[1] = test system: Past.multo. A 723; assay: agar serial dilution test; type: cell-based, Pasteurella multocida; settings: Pasteurella multocida; agar serial dilution, 24 hours, 37° C.; read-out: minimal inhibitory concentration (MIC)
[2] = test system: Kleb.pneum. A 809; assay: agar serial dilution test; type: cell-based, Klebsiella pneumoniae; settings: Klebsiella pneumoniae; agar serial dilution, 24 hours, 37° C.; read-out: minimal inhibitory concentration (MIC)
[3] = test system: Staph.aureus A 355; assay: micro serial dilution test; type: cell-based, Staphylococcus aureus; settings: Staphylococcus aureus, A355; micro serial dilution (in brackets), about 18 hours, 30° C. or 37° C.; penicillinase-producing strain; read-out: minimal inhibitory concentration (MIC)
[4] = test system: Staph.aureus A 2000; assay: micro serial dilution test; type: cell-based, Staphylococcus aureus; settings: Staphylococcus aureus, A2000, 18 h, micro serial dilution (in brackets), about 18 hours, 30° C. or 37° C.; read-out: minimal inhibitory concentration (MIC)
[5] = test system: Bac.Subt.ATCC 6633; assay: agar serial dilution test; type: cell-based, Bacillus subtilis; settings: Bacillus subtilis, ATCC6633, 24 h, agar serial dilution, 24 hours, 37° C.; read-out: minimal inhibitory concentration (MIC)
[6] = test system: Staph.aureus A 355; assay: agar serial dilution test; settings: Staphylococcus aureus, A355, 24 h, read-out: minimal inhibitory concentration (MIC), agar serial dilution, 24 hours, 37° C.; penicillinase-producing strain
[7] = test system: Strep.haem. A 266; assay: agar serial dilution test; type: cell-based, Streptococcus haemolyticus; settings: Streptococcus; agar serial dilution, 24 hours, 37° C.; read-out: minimal inhibitory concentration (MIC)
[8] = test system: Strep. faec. L 80; assay: agar serial dilution test; type: cell-based, Streptococcus faecalis; settings: Enterococcus faecalis; agar serial dilution, 24 hours, 37° C.; read-out: minimal inhibitory concentration (MIC)
[9] = test system: Prot.morg. 2241; assay: agar serial dilution test; type: cell-based; settings: 24 h, agar serial dilution, 24 hours, 37° C.; read-out: minimal inhibitory concentration (MIC)
[10] = test system: Pseud.aerug. Wyeth A 1058; assay: agar serial dilution test; type: cell-based; settings: agar serial dilution, 24 hours, 37° C.; read-out: minimal inhibitory concentration (MIC)
[11] = test system: Staph.aureus A 321; assay: agar serial dilution test; type: cell-based, Staphylococcus aureus; settings: Staphylococcus aureus, A321, 24 h, agar serial dilution, 24 hours, 37° C.; read-out: minimal inhibitory concentration (MIC)
[12] = test system: Salm.dubl. P 43; assay: agar serial dilution test; type: cell-based, Salmonella dublin; settings: Salmonella enterica, read-out: minimal inhibitory concentration (MIC)
[13] = test system: Staph.aureus A 2001; assay: agar serial dilution test; type: cell-based, Staphylococcus aureus; settings: Staphylococcus aureus, A2001, 24 h, read-out: minimal inhibitory concentration (MIC)
[14] = test system: Prot.rettg. A 821; assay: agar serial dilution test; type: cell-based, Proteus rettgeri; settings: Providencia rettgeri, 24 h, read-out: minimal inhibitory concentration (MIC)
[15] = test system: Prot.mirab. A 1200; assay: agar serial dilution test; type: cell-based, Proteus mirabilis; settings: Proteus mirabilis, 24 h, read-out: minimal inhibitory concentration (MIC)
[16] = test system: Pseud.aerug. 2396; assay: agar serial dilution test; type: cell-based; settings: agar serial dilution, 24 hours, 37° C.; read-out: minimal inhibitory concentration (MIC)
[17] = test system: Pseud.aerug. H 10; assay: agar serial dilution test; type: cell-based; settings: agar serial dilution, 24 hours, 37° C.; read-out: minimal inhibitory concentration (MIC)
[18] = test system: Esch.coli U 20; assay: agar serial dilution test; type: cell-based, Escherichia coli; settings: Escherichia coli
[19] = test system: Prot.mirab. L 93; assay: agar serial dilution test; type: cell-based, Proteus mirabilis; settings: Proteus mirabilis; agar serial dilution, 24 hours, 37° C.; read-out: minimal inhibitory concentration (MIC)
[20] = test system: Salm.typh. R 127; assay: agar serial dilution test; type: cell-based; settings: 24 h, 37° C., read-out: minimal inhibitory concentration (MIC)
[21] = test system: Prot.mirab. H 3; assay: agar serial dilution test; type: cell-based, Proteus mirabilis; settings: Proteus mirabilis; agar serial dilution, 24 hours, 37° C.; read-out: minimal inhibitory concentration (MIC)
[22] = test system: Shig.equir. T 3; assay: agar serial dilution test; type: cell-based; settings: 24 h, 37° C., read-out: minimal inhibitory concentration (MIC)
[23] = test system: Staph.aureus A 2000; assay: agar serial dilution test; type: cell-based, Staphylococcus aureus; settings: Staphylococcus aureus, A2000, 24 h, agar serial dilution, 24 hours, 37° C.; read-out: minimal inhibitory concentration (MIC)
[24] = test system: Haem.infl. A 1030; assay: micro serial dilution test; type: cell-based; settings: 18 h, micro serial dilution (in brackets), about 18 hours, 30° C. or 37° C.; read-out: minimal inhibitory concentration (MIC)
[25] = test system: Staph.aureus A 2001; assay: micro serial dilution test; type: cell-based, Staphylococcus aureus; settings: Staphylococcus aureus, A2001, 18 h, micro serial dilution (in brackets), about 18 hours, 30° C. or 37° C.; read-out: minimal inhibitory concentration (MIC)
[26] = test system: Bruc.melit. A 488; assay: microbe, parasite or virus in culture; type: cell-based; settings: Brucella melitensis, 24 h, read-out: minimal inhibitory concentration (MIC)
[27] = test system: Dipl.pneum. L 54; assay: agar serial dilution test; type: cell-based, Diplococcus pneumoniae; settings: Streptococcus pneumoniae; agar serial dilution, 24 hours, 37° C.; read-out: minimal inhibitory concentration (MIC)
[28] = blood and urine contents after intramuscular administration in rabbits; type: in vivo, rabbits "Nieuw Zeelander"; settings: rabbit, im, intramuscular 50 mg/kg
Experimental: (d) the blood and urine contents of the above-indicated compound G and of monosodium 7-[(3-carboxymethyl-1,2,4-oxadiazol-5-yl)acetamido]-3-acetoxymethyl-3-cephem-4-carboxylate (as prepared in example 35) were determined after intramuscular administration of these compounds in an aqueous solution in rabbits, as listed below:
test animals: rabbits "Nieuw Zeelander"
Each testgroup consisted of 3 rabbits.
Vehiculum: Physiol. saline solution
Bloodsamples were taken after 1/4--1/2--1--2--4 hours Urinesamples were taken after 1--3--6--24--27 hours (in practice only the secreted amounts after 6 and 24 hours were used).
Testorganisms: Bacillus subtilis ATCC 6633 and Bacillus callidolactis E 16.
The contents of the compounds in the samples were determined microbiologically.
(Only microbiologically detected concentrations, i.e. anti-bacterially active concentrations only have been indicated and determined in relation to the original administered compound).

[29] = agar serial dilution, 24 hours, 37° C.
[30] = U20, agar serial dilution, 24 hours, 37° C., read-out: minimal inhibitory concentration (MIC)
[31] = U20, 24 h, read-out: minimal inhibitory concentration (MIC), agar serial dilution, 24 hours, 37° C.

Structure (SMILES)	MIC [1] [µg/mL]	MIC [2] [µg/mL]	MIC [3] [µg/mL]	MIC [4] [µg/mL]	MIC [5] [µg/mL]	MIC [6] [µg/mL]	MIC [7] [µg/mL]	MIC [8] [µg/mL]	MIC [9] [µg/mL]	MIC [10] [µg/mL]	MIC [11] [µg/mL]	MIC [16] [µg/mL]	MIC [17] [µg/mL]	MIC [19] [µg/mL]	MIC [20] [µg/mL]	MIC [21] [µg/mL]	MIC [22] [µg/mL]	MIC [23] [µg/mL]	MIC [24] [µg/mL]	MIC [25] [µg/mL]	other results
CC(=O)OCC1=C(C(=O)O)N2C(=O)[C@@H](NC(=O)Cc3nc(-c4c(Cl)cccc4Cl)no3)[C@H]2SC1 [Example 11C, 7-{[3-(2,6-dichlorophenyl)-1,2,4-oxadiazol-5-yl]-acetamido}cephalosporanicacid]	6 (≈ 11.4 µM)	12.5 (≈ 23.7 µM)	0.69 (≈ 1.31 µM)	0.18 (≈ 0.341 µM)	0.12 (≈ 0.228 µM)	0.5 (≈ 0.948 µM)	0.03 (≈ 0.0569 µM)	1.5 (≈ 2.84 µM)	> 100	> 100	0.12 (≈ 0.228 µM)	> 100	> 100	100 (≈ 190 µM)	> 100	> 100	25 (≈ 47.4 µM)	0.5 (≈ 0.948 µM)	23 (≈ 43.6 µM)	0.25 (≈ 0.474 µM)	MIC [12, 29]: > 100 µg/mL; MIC [13, 29]: 0.5 µg/mL (≈ 0.948 µM); MIC [14, 29]: 3 µg/mL (≈ 5.69 µM); MIC [15, 29]: > 100 µg/mL; MIC [18, 30]: > 100 µg/mL; MIC [26]: 6 µg/mL (≈ 11.4 µM); MIC [27]: 0.06 µg/mL (≈ 0.114 µM)
CC(=O)OCC1=C(C(=O)O)N2C(=O)[C@@H](NC(=O)Cc3noc(C)n3)[C@H]2SC1 [Example 11D, 7-[(5-methyl-1,2,4-oxadiazol-3-yl)-acetamido]-cephalosporanic acid]	6 (≈ 15.1 µM)	6 (≈ 15.1 µM)	6 (≈ 15.1 µM)	1.2 (≈ 3.03 µM)	0.5 (≈ 1.26 µM)	6 (≈ 15.1 µM)	0.5 (≈ 1.26 µM)	100 (≈ 252 µM)	> 100	> 100	1 (≈ 2.52 µM)	> 100	> 100	6 (≈ 15.1 µM)	12.5 (≈ 31.5 µM)	6 (≈ 15.1 µM)	1.5 (≈ 3.78 µM)	3 (≈ 7.57 µM)	90 (≈ 227 µM)	0.6 (≈ 1.51 µM)	MIC ([12]; 24 h): 12.5 µg/mL (≈ 31.5 µM); MIC [13, 29]: 3 µg/mL (≈ 7.57 µM); MIC [14, 29]: 40 µg/mL (≈ 101 µM); MIC [15]: 12.5 µg/mL (≈ 31.5 µM); MIC [18, 31]: 12.5 µg/mL (≈ 31.5 µM); MIC [26]: 10 µg/mL (≈ 25.2 µM); MIC [27]: 1.5 µg/mL (≈ 3.78 µM)
CC1=C(C(=O)O)N2C(=O)[C@@H](NC(=O)Cc3nc(C)no3)[C@H]2SC1 [Example 11F, 7-[(3-methyl-1,2,4-oxadiazol-5-yl)-acetamido]-desacetoxycephalosporanic acid]	100 (≈ 296 µM)	100 (≈ 296 µM)	15 (≈ 44.3 µM)	15 (≈ 44.3 µM)	6 (≈ 17.7 µM)	50 (≈ 148 µM)	6 (≈ 17.7 µM)	> 100	> 100	> 100	6 (≈ 17.7 µM)	> 100	> 100	> 100	> 100	> 100	12.5 (≈ 36.9 µM)	50 (≈ 148 µM)	125 (≈ 369 µM)	8 (≈ 23.6 µM)	MIC [12, 29]: 100 µg/mL (≈ 296 µM); MIC [13]: 12.5 µg/mL (≈ 36.9 µM); MIC [14, 29]: > 100 µg/mL; MIC [15, 29]: > 100 µg/mL; MIC [18, 30]: > 100 µg/mL; MIC [26]: 6 µg/mL (≈ 17.7 µM); MIC [27]: 50 µg/mL (≈ 148 µM)
Cc1nc(CC(=O)N[C@@H]2C(=O)N3C(C(=O)O)=C(CN=[N+]=[N-])CS[C@H]23)no1 [Example 18, 7-[(5-methyl-1,2,4-oxadiazol-3-yl)-acetamido]-3-azidomethyl-3-cephem-4-carboxylic acid]	10 (≈ 26.4 µM)	6 (≈ 15.8 µM)	1.2 (≈ 3.16 µM)	1.2 (≈ 3.16 µM)	1 (≈ 2.64 µM)	1.5 (≈ 3.95 µM)	0.25 (≈ 0.659 µM)	> 100	> 100	> 100	1 (≈ 2.64 µM)	> 100	> 100	6 (≈ 15.8 µM)	12.5 (≈ 33 µM)	25 (≈ 65.9 µM)	3 (≈ 7.91 µM)	1.5 (≈ 3.95 µM)	6 (≈ 15.8 µM)	0.9 (≈ 2.37 µM)	MIC [12, 29]: 6 µg/mL (≈ 15.8 µM); MIC [13, 29]: 1 µg/mL (≈ 2.64 µM); MIC [14]: 12.5 µg/mL (≈ 33 µM); MIC [15, 29]: 25 µg/mL (≈ 65.9 µM); MIC [18, 31]: 12.5 µg/mL (≈ 33 µM); MIC [26]: 6 µg/mL (≈ 15.8 µM); MIC [27]: 3 µg/mL (≈ 7.91 µM)
Cc1nc(CC(=O)N[C@@H]2C(=O)N3C(C(=O)O)=C(CN=[N+]=[N-])C[S+]([O-])[C@H]23)no1 (stereo partly shown) [Example 19, R-sulfoxide of 7-[(5-methyl-1,2,4-oxadiazol-3-yl)-acetamido]-3-azidomethyl-3-cephem-4-carboxylic acid]	25 (≈ 63.2 µM)	50 (≈ 126 µM)	15 (≈ 37.9 µM)	5 (≈ 12.6 µM)	0.5 (≈ 1.26 µM)	12.5 (≈ 31.6 µM)	0.5 (≈ 1.26 µM)	> 100	> 100	> 100	6 (≈ 15.2 µM)	> 100	> 100	25 (≈ 63.2 µM)	100 (≈ 253 µM)	50 (≈ 126 µM)	6 (≈ 15.2 µM)	6 (≈ 15.2 µM)	23 (≈ 58.2 µM)	6 (≈ 15.2 µM)	MIC [12, 29]: 25 µg/mL (≈ 63.2 µM); MIC [13, 29]: 6 µg/mL (≈ 15.2 µM); MIC [14, 29]: 6 µg/mL (≈ 15.2 µM); MIC [15, 29]: > 100 µg/mL; MIC [18, 30]: 100 µg/mL (≈ 253 µM); MIC [26]: 6 µg/mL (≈ 15.2 µM); MIC [27]: 3 µg/mL (≈ 7.59 µM)
CC(=O)OCC1=C(C(=O)O)N2C(=O)[C@@H](NC(=O)Cc3nc(CC(=O)O)no3)[C@H]2SC1 [Example 35, Monosodium 7-[3-carboxymethyl-1,2,4-oxadiazol-5-yl-acetamido]-cephalosporanate]																					concentration at 0.5 h ([28]; serum, after 1/2 hr, read-out: Serumlevel): 93.7 µg/mL; concentration at 0.25 h ([28]; serum, after 1/4 hr, read-out: Serumlevel): 119 µg/mL; concentration at 1 h ([28]; serum, after 1 hr, read-out: Serumlevel): 56 µg/mL; concentration at 2 h ([28]; serum, after 2 hr, read-out: Serumlevel): 15.4 µg/mL; concentration at 4 h ([28]; serum, after 4 hr, read-out: Serumlevel): 1.8 µg/mL; dose excreted at 6 h ([28]; urine, after 6 hr, read-out: Secretion of compound in urine in % of the administered dose): 35.9%; dose excreted at 24 h ([28]; urine, after 24 hr, read-out: Secretion of compound in urine in % of the administered dose): 51.4%
